US11807609B2, “Deuterated compounds as immunomodulators” (CHEMOCENTRYX, INC., priority 2017, dated 2023)

Each molecule was assayed against T1, C5aR (Homo sapiens, UniProt P21730) (assay: C5a-induced chemotaxis (migration) assay in freshly-drawn human blood, ChemoTX plate, CyQUANT readout). Conditions: migration of cells from human whole blood (EDTA) toward recombinant hC5a, 37° C., 90-180 minutes; read-out: Mig IC50.
T1 construct: added to freshly-drawn human blood (EDTA as anticoagulant); endogenous in cells; host or cells: leukocytes in freshly drawn human whole blood (EDTA)
T1 sequence (P21730 1-350): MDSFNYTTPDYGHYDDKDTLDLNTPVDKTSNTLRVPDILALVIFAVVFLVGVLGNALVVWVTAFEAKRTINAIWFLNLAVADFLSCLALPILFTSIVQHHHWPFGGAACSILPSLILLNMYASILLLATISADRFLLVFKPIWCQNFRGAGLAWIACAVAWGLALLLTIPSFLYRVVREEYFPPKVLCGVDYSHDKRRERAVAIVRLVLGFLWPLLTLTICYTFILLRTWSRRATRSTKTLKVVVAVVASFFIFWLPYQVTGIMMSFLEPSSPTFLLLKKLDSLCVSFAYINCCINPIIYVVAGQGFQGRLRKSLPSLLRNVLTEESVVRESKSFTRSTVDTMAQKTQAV
Type: cell-based
Protocol: A serial dilution of C5aR compound or an equivalent volume of DMSO was added to freshly-drawn human blood (EDTA as anticoagulant). Separately, recombinant hC5a was diluted with chemotaxis buffer, after which 29 μl of diluted chemokine was placed in the lower wells of a ChemoTX plate (Neuro Probe, Gaithersburg, MD). A 3-μm (pore size) polycarbonate membrane (Neuro Probe, Gaithersburg, MD) was placed onto the plate, and 20 μL of the blood/compound mixture was transferred onto each well of the membrane. The plates were incubated at 37° C. for 90-180 minutes, after which the polycarbonate membranes were removed and 5 μl of the DNA-intercalating agent CyQUANT (Invitrogen, Carlsbad, CA) was added to the lower wells. The amount of fluorescence, corresponding to the number of migrated cells, was measured using a Spectrafluor Plus plate reader (TECAN, San Jose, CA).
Compounds in Table 1 were prepared by methods as described in the Examples, and evaluated according to the assay above. The IC50 of the compounds are presented in Table 1 as follows: +++, IC50≤100 nM .
With [2H]C([2H])(O)c1ccc(NC(=O)[C@H]2CCCN(C(=O)c3c(C)cccc3F)[C@H]2c2ccc(NC3CCCC3)cc2)cc1C(F)(F)F [Compound 1.006, (2R,3S)-2-(4-(cyclopentylamino)phenyl)-1-(2-fluoro-6-methylbenzoyl)-N-(4-(hydroxymethyl-d2)-3-(trifluoromethyl)phenyl)-piperidine-3-carboxamide] the IC50 was ≤ 100 nM. For [2H]c1cc([C@H]2[C@@H](C(=O)Nc3ccc(C)c(C(F)(F)F)c3)CCCN2C(=O)c2c(F)cccc2C([2H])([2H])[2H])ccc1NC1CCCC1 [Compound 1.004], the IC50 was ≤ 100 nM. With [2H]C1([2H])CC(Nc2ccc([C@H]3[C@@H](C(=O)Nc4ccc(C)c(C(F)(F)F)c4)CCCN3C(=O)c3c(C)cccc3F)cc2)CC1([2H])[2H] [Compound 1.005] the IC50 was ≤ 100 nM. In the case of [2H][C@]1(C(=O)Nc2ccc(C)c(C(F)(F)F)c2)CCCN(C(=O)c2c(C)cccc2F)[C@H]1c1ccc(NC2CCCC2)cc1 [Compound 1.015], the IC50 is reported as ≤ 100 nM. For [2H]c1cc([C@H]2[C@@H](C(=O)Nc3c([2H])cc(C)c(C(F)(F)F)c3[2H])CCCN2C(=O)c2c(C)cccc2F)ccc1NC1CCCC1 [Compound 1.007], the IC50 was ≤ 100 nM. With [2H]c1cc(C)c(C(F)(F)F)cc1NC(=O)[C@H]1CCCN(C(=O)c2c(C)cccc2F)[C@H]1c1ccc(NC2CCCC2)cc1 [Compound 1.020] the IC50 was ≤ 100 nM. For [2H]c1cc(C)c(C(F)(F)F)c([2H])c1NC(=O)[C@H]1CCCN(C(=O)c2c(F)cccc2C([2H])([2H])[2H])[C@H]1c1ccc(NC2CCCC2)cc1 [Compound 1.012], the IC50 was ≤ 100 nM. In the case of [2H]c1cc([C@H]2[C@@H](C(=O)Nc3ccc(C)c(C(F)(F)F)c3)CCCN2C(=O)c2c(C)cccc2F)ccc1NC1CCCC1 [Compound 1.008], the IC50 is reported as ≤ 100 nM. In the case of [2H]C([2H])([2H])c1ccc(NC(=O)[C@H]2CCCN(C(=O)c3c(F)cccc3C([2H])([2H])[2H])[C@H]2c2ccc(NC3CCCC3)cc2)cc1C(F)(F)F [Compound 1.010, (2R,3S)-2-(4-(cyclopentylamino)phenyl)-1-(2-fluoro-6-(methyl-d3)benzoyl)-N-(4-(methyl-d3)-3-(trifluoromethyl)phenyl)piperidine-3-carboxamide], the IC50 is reported as ≤ 100 nM. For [2H]C1([2H])C([2H])([2H])C([2H])([2H])C([2H])(Nc2ccc([C@H]3[C@@H](C(=O)Nc4ccc(C)c(C(F)(F)F)c4)CCCN3C(=O)c3c(C)cccc3F)cc2)C1([2H])[2H] [Compound 1.019, (2R,3S)-2-(4-((cyclopentyl-d9)amino)phenyl)-1-(2-fluoro-6-methylbenzoyl)-N-(4-methyl-3-(trifluoromethyl)phenyl)piperidine-3-carboxamide], the IC50 was ≤ 100 nM. With [2H]c1cc(C)c(C(=O)N2CCC[C@H](C(=O)Nc3ccc(C)c(C(F)(F)F)c3)[C@@H]2c2ccc(NC3CC([2H])([2H])C([2H])([2H])C3)cc2)c(F)c1 [Compound 1.013] the IC50 was ≤ 100 nM. In the case of [2H]C1(Nc2ccc([C@H]3[C@@H](C(=O)Nc4ccc(C)c(C(F)(F)F)c4)CCCN3C(=O)c3c(C)cccc3F)cc2)CCCC1 [Compound 1.009], the IC50 is reported as ≤ 100 nM. [2H]c1cc(C)c(C(=O)N2CCC[C@H](C(=O)Nc3ccc(C)c(C(F)(F)F)c3)[C@@H]2c2ccc(NC3CCCC3)cc2)c(F)c1 [Compound 1.016] was tested, and the IC50 was ≤ 100 nM. In the case of [2H]C([2H])([2H])c1cccc(F)c1C(=O)N1CCC[C@H](C(=O)Nc2ccc(C([2H])([2H])O)c(C(F)(F)F)c2)[C@@H]1c1ccc(NC2CCCC2)cc1 [Compound 1.003, (2R,3S)-2-(4-(cyclopentylamino)phenyl)-1-(2-fluoro-6-(methyl-d3)benzoyl)-N-(4-(hydroxymethyl-d2)-3-(trifluoromethyl)phenyl)piperidine-3-carboxamide], the IC50 is reported as ≤ 100 nM. In the case of [2H]c1cc(C)c(C(F)(F)F)c([2H])c1NC(=O)[C@H]1CCCN(C(=O)c2c(C)cccc2F)[C@H]1c1ccc(NC2CCCC2)cc1 [Compound 1.018, (2R,3S)-2-(4-(cyclopentylamino)phenyl)-1-(2-fluoro-6-methylbenzoyl)-N-(4-methyl-3-(trifluoromethyl)phenyl-2,6-d3)piperidine-3-carboxamide], the IC50 is reported as ≤ 100 nM. For [2H]C([2H])([2H])c1cccc(F)c1C(=O)N1CCC[C@H](C(=O)Nc2ccc(CO)c(C(F)(F)F)c2)[C@@H]1c1ccc(NC2CCCC2)cc1 [Compound 1.011], the IC50 was ≤ 100 nM. In the case of [2H]c1cc([C@H]2[C@@H](C(=O)Nc3ccc(C([2H])([2H])O)c(C(F)(F)F)c3)CCCN2C(=O)c2c(C)cccc2F)ccc1NC1CCCC1 [Compound 1.002], the IC50 is reported as ≤ 100 nM. For [2H]C([2H])([2H])c1ccc(NC(=O)[C@H]2CCCN(C(=O)c3c(C)cccc3F)[C@H]2c2ccc(NC3CCCC3)cc2)cc1C(F)(F)F [Compound 1.021, (2R,3S)-2-(4-(cyclopentylamino)phenyl)-1-(2-fluoro-6-methylbenzoyl)-N-(4-(methyl-d3)-3-(trifluoromethyl)phenyl)piperidine-3-carboxamide], the IC50 was ≤ 100 nM. With [2H]C([2H])([2H])c1cccc(F)c1C(=O)N1CCC[C@H](C(=O)Nc2ccc(C)c(C(F)(F)F)c2)[C@@H]1c1ccc(NC2CC([2H])([2H])C([2H])([2H])C2)cc1 [Compound 1.014, (2R,3S)-2-(4-((cyclopentyl-3,3,4,4-d4)amino)phenyl)-1-(2-fluoro-6-(methyl-d3)benzoyl)-N-(4-methyl-3-(trifluoromethyl)phenyl)piperidine-3-carboxamide] the IC50 was ≤ 100 nM. With [2H]C([2H])([2H])c1cccc(F)c1C(=O)N1CCC[C@H](C(=O)Nc2ccc(C)c(C(F)(F)F)c2)[C@@H]1c1ccc(NC2CCCC2)cc1 [Compound 1.017] the IC50 was ≤ 100 nM. [2H]c1cc(C)c(C(=O)N2CCC[C@H](C(=O)Nc3ccc(C([2H])([2H])O)c(C(F)(F)F)c3)[C@@H]2c2ccc(NC3CCCC3)cc2)c(F)c1 [Compound 1.001] was tested, and the IC50 was ≤ 100 nM.
